In the NIST ThermoML archive (doi:10.1021/je060485s):

Assays:
[1] = for surface tension liquid-gas: Pendant drop shape; for mass density: 101 kPa, Liquid
[2] = xn = mol fraction of the nth substance listed; details: for surface tension liquid-gas: Pendant drop shape; for mass density: 101 kPa, Liquid

Cc1ccc(C)cc1 [1,4-dimethylbenzene]
[1]
Details | mass density [kg/m3] | surface tension liquid-gas [mN/m]
298.15 K | 856.92 | 28.08
303.15 K | 852.58 | 27.47
308.15 K | 848.26 | 27.13

Cc1ccccc1C [1,2-dimethylbenzene]
[1]
Details | mass density [kg/m3] | surface tension liquid-gas [mN/m]
298.15 K | 875.05 | 29.89
303.15 K | 870.83 | 29.24
308.15 K | 866.62 | 28.57

Cc1ccc(C)cc1 [1,4-dimethylbenzene] + CCCOC(C)=O
[2], x2 = 0
Details | mass density [kg/m3] | surface tension liquid-gas [mN/m]
298.15 K | 856.92 | 28.08
303.15 K | 852.58 | 27.47
308.15 K | 848.26 | 27.13

Cc1cccc(C)c1 [1,3-dimethylbenzene]
[1]
Details | mass density [kg/m3] | surface tension liquid-gas [mN/m]
298.15 K | 859.8 | 28.47
303.15 K | 855.51 | 27.93
308.15 K | 851.19 | 27.37

CCc1ccccc1 [ethylbenzene] + CCCOC(C)=O
[2], x2 = 0
Details | mass density [kg/m3] | surface tension liquid-gas [mN/m]
298.15 K | 862.25 | 28.79
303.15 K | 857.88 | 28.29
308.15 K | 853.43 | 27.85

CCCOC(C)=O [propyl ethanoate] + Cc1cccc(C)c1
[2], x1 = 1
Details | mass density [kg/m3] | surface tension liquid-gas [mN/m]
298.15 K | 882.54 | 23.91
303.15 K | 876.99 | 23.46
308.15 K | 871.35 | 22.79

CCCOC(C)=O [propyl ethanoate]
[1]
Details | mass density [kg/m3] | surface tension liquid-gas [mN/m]
298.15 K | 882.54 | 23.91
303.15 K | 876.99 | 23.46
308.15 K | 871.35 | 22.79

CCCOC(C)=O [propyl ethanoate] + CCc1ccccc1
[2]
Details | mass density [kg/m3] | surface tension liquid-gas [mN/m]
298.15 K, x1 = 0.1005 | 864.23 | 28.15
298.15 K, x1 = 0.1994 | 866.18 | 27.51
298.15 K, x1 = 0.3002 | 868.16 | 26.89
298.15 K, x1 = 0.4005 | 870.14 | 26.35
298.15 K, x1 = 0.5 | 872.12 | 25.91
298.15 K, x1 = 0.6002 | 874.14 | 25.5
298.15 K, x1 = 0.6997 | 876.17 | 25.1
298.15 K, x1 = 0.7998 | 878.24 | 24.7
298.15 K, x1 = 0.9007 | 880.38 | 24.3
298.15 K, x1 = 1 | 882.54 | 23.91
303.15 K, x1 = 0.1001 | 859.75 | 27.7
303.15 K, x1 = 0.1995 | 861.59 | 27.1
303.15 K, x1 = 0.2995 | 863.45 | 26.49
303.15 K, x1 = 0.4 | 865.32 | 25.95
303.15 K, x1 = 0.5004 | 867.2 | 25.49
303.15 K, x1 = 0.5995 | 869.08 | 25.07
303.15 K, x1 = 0.6999 | 871 | 24.65
303.15 K, x1 = 0.8005 | 872.96 | 24.24
303.15 K, x1 = 0.9007 | 874.96 | 23.85
303.15 K, x1 = 1 | 876.99 | 23.46
308.15 K, x1 = 0.1 | 855.19 | 27.24
308.15 K, x1 = 0.2 | 856.93 | 26.62
308.15 K, x1 = 0.2999 | 858.67 | 26.01
308.15 K, x1 = 0.3997 | 860.41 | 25.46
308.15 K, x1 = 0.5003 | 862.18 | 24.97
308.15 K, x1 = 0.5999 | 863.95 | 24.52
308.15 K, x1 = 0.7001 | 865.74 | 24.08
308.15 K, x1 = 0.8007 | 867.58 | 23.65
308.15 K, x1 = 0.9003 | 869.44 | 23.22
308.15 K, x1 = 1 | 871.35 | 22.79

CCc1ccccc1 [ethylbenzene]
[1]
Details | mass density [kg/m3] | surface tension liquid-gas [mN/m]
298.15 K | 862.25 | 28.79
303.15 K | 857.88 | 28.29
308.15 K | 853.43 | 27.85

Cc1cccc(C)c1 [1,3-dimethylbenzene] + CCCOC(C)=O
[2]
Details | mass density [kg/m3] | surface tension liquid-gas [mN/m]
298.15 K, x2 = 0 | 859.8 | 28.47
298.15 K, x2 = 0.0997 | 861.98 | 27.86
298.15 K, x2 = 0.1999 | 864.17 | 27.26
298.15 K, x2 = 0.2986 | 866.33 | 26.7
298.15 K, x2 = 0.4002 | 868.57 | 26.16
298.15 K, x2 = 0.4986 | 870.76 | 25.71
298.15 K, x2 = 0.6004 | 873.06 | 25.3
298.15 K, x2 = 0.6984 | 875.31 | 24.94
298.15 K, x2 = 0.8004 | 877.7 | 24.59
298.15 K, x2 = 0.9007 | 880.11 | 24.25
303.15 K, x2 = 0 | 855.51 | 27.93
303.15 K, x2 = 0.0999 | 857.57 | 27.35
303.15 K, x2 = 0.1989 | 859.62 | 26.79
303.15 K, x2 = 0.299 | 861.69 | 26.25
303.15 K, x2 = 0.4003 | 863.8 | 25.73
303.15 K, x2 = 0.5 | 865.9 | 25.27
303.15 K, x2 = 0.5994 | 868.02 | 24.88
303.15 K, x2 = 0.6998 | 870.19 | 24.51
303.15 K, x2 = 0.8006 | 872.42 | 24.15
303.15 K, x2 = 0.8992 | 874.66 | 23.81
308.15 K, x2 = 0 | 851.19 | 27.37
308.15 K, x2 = 0.0998 | 853.12 | 26.8
308.15 K, x2 = 0.2 | 855.07 | 26.25
308.15 K, x2 = 0.2998 | 857.01 | 25.71
308.15 K, x2 = 0.3993 | 858.96 | 25.19
308.15 K, x2 = 0.5006 | 860.96 | 24.7
308.15 K, x2 = 0.6004 | 862.95 | 24.27
308.15 K, x2 = 0.6999 | 864.97 | 23.89
308.15 K, x2 = 0.7988 | 867.02 | 23.52
308.15 K, x2 = 0.9013 | 869.2 | 23.15
